According to US6984649B1, “Pyridine derivatives” (Bayer Aktiengesellschaft, priority 2000, dated 2006):

target: T1, human IKK-β (Homo sapiens, UniProt O14920); assay: IKK-β kinase inhibitory assay; assay type: biochemical; conditions: compounds as yielded by solid phase synthesis, purity about 40 to 90%, read-out: In vitro activity grade (In vitro IC50)
T1 construct: A cDNA fragment encoding human IKK-β open reading frame was generated by PCR; His tag (from pcDNA3.1/His C); made in house; host or cells: Sf21 insect cells (baculovirus); substrate made in E. coli
T1 sequence (O14920 1-756): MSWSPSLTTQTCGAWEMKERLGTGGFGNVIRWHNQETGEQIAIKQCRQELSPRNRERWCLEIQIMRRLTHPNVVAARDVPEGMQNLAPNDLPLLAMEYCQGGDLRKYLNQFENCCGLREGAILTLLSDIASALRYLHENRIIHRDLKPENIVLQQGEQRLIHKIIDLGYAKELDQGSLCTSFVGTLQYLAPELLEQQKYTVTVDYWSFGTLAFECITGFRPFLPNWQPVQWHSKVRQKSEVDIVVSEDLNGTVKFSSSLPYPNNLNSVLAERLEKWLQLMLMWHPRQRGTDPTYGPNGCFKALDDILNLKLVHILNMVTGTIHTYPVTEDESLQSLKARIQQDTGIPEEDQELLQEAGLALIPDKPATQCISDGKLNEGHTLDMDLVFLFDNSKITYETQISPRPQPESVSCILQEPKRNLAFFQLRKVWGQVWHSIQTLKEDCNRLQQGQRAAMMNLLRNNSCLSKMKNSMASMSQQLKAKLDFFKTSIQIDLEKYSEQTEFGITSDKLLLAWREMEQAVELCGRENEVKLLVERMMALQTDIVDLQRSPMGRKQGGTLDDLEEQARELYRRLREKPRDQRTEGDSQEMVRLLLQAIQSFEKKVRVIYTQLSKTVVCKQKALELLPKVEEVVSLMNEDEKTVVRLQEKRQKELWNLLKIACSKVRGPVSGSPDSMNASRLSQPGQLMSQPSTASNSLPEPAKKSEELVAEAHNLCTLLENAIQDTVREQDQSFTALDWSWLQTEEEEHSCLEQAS
How it was run: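 Radiometric read-out: streptavidin capture of 33P-labelled bio-GST-IκBα(1-54), 0.2 μM, after a 2 h room-temperature reaction started with ATP/[γ-33P]ATP. Enzyme was recombinant His-tagged human IKK-β expressed in Sf21 insect cells, used at 0.6 μg/ml in Tris-HCl pH 7.6/MgCl2 kinase buffer. Compounds added in 2.5% DMSO.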

`O=c1[nH]c2nc(-c3c(O)cccc3OCC3CC3)cc(C3CCCNC3)c2cc1[N+](=O)[O-]` (centres unmarked) [Example 25-05] and `N#Cc1cc2c(C3CCCNC3)cc(-c3c(O)cccc3OCC3CC3)nc2[nH]c1=O` (centres unmarked) [Example 25-06] cannot be ordered by IC50: < 500 nM for the first, < 500 nM for the second.

`O=c1[nH]c2nc(-c3c(O)cccc3OCC3CC3)cc(C3CCCNC3)c2cc1S(=O)(=O)c1ccccc1` (centres unmarked) [Example 25-07] and `O=C(NCc1ccccc1)c1cc2c(C3CCCNC3)cc(-c3c(O)cccc3OCC3CC3)nc2[nH]c1=O` (centres unmarked) [Example 31-06] cannot be ordered by IC50: < 500 nM for the first, < 500 nM for the second.

`NC(=O)c1cc2c(C3CCCNC3)cc(-c3c(O)cccc3OCC3CC3)nc2[nH]c1=O` (centres unmarked) [Example 25-08] and `CNC(=O)c1cc2c(C3CCCNC3)cc(-c3c(O)cccc3OCC3CC3)nc2[nH]c1=O` (centres unmarked) [Example 31-03] cannot be ordered by IC50: < 500 nM for the first, < 500 nM for the second.

`CCOC(=O)C1Cc2c(C3CCCNC3)cc(-c3c(O)cccc3OCC3CC3)nc2NC1=O` (centres unmarked) [Example 26-03] and `NC(=O)C1Cc2c(C3CCCNC3)cc(-c3c(O)cccc3OCC3CC3)nc2NC1=O` (centres unmarked) [Example 26-05] cannot be ordered by IC50: < 500 nM for the first, < 500 nM for the second.

`CCOC(=O)C1Cc2c(C3CCNCC3)cc(-c3c(O)cccc3OCC3CC3)nc2NC1=O` (centres unmarked) [Example 26-04] and `O=C1CCc2c(C3CCNCC3)cc(-c3c(O)cccc3OCC3CC3)nc2N1` [Example 27-04] cannot be ordered by IC50: < 500 nM for the first, < 500 nM for the second.

`CCCOc1cccc(O)c1-c1cc(C2CCCNC2)c2c(n1)NC(=O)C(C(=O)OCC)C2` (centres unmarked) [Example 26-06] and `CCCOc1cccc(O)c1-c1cc(C2CCCNC2)c2c(n1)NC(=O)CC2` (centres unmarked) [Example 27-02] cannot be ordered by IC50: < 500 nM for the first, < 500 nM for the second.

`O=C1CCc2c(C3CCCNC3)cc(-c3c(O)cccc3OCC3CC3)nc2N1` (centres unmarked) [Example 27-03, 7-[2-(cyclopropylmethoxy)-6-hydroxyphenyl]-5-(3-piperidinyl)-3,4-dihydro-1,8-naphthyridin-2(1H)-one] and `CCCOc1cccc(O)c1-c1cc(C2CCNCC2)c2c(n1)NC(=O)CC2` [Example 27-05] cannot be ordered by IC50: < 500 nM for the first, < 500 nM for the second.

`CN(C)C(=O)c1cc2c(C3CCCNC3)cc(-c3c(O)cccc3OCC3CC3)nc2[nH]c1=O` (centres unmarked) [Example 31-04] and `CN(C)CCNC(=O)c1cc2c(C3CCCNC3)cc(-c3c(O)cccc3OCC3CC3)nc2[nH]c1=O` (centres unmarked) [Example 31-11] cannot be ordered by IC50: < 500 nM for the first, < 500 nM for the second.

`O=C(c1cc2c(C3CCCNC3)cc(-c3c(O)cccc3OCC3CC3)nc2[nH]c1=O)N1CCCC1` (centres unmarked) [Example 31-05] and `O=C(c1cc2c(C3CCCNC3)cc(-c3c(O)cccc3OCC3CC3)nc2[nH]c1=O)N1CCOCC1` (centres unmarked) [Example 31-08] cannot be ordered by IC50: < 500 nM for the first, < 500 nM for the second.

`COCCNC(=O)c1cc2c(C3CCCNC3)cc(-c3c(O)cccc3OCC3CC3)nc2[nH]c1=O` (centres unmarked) [Example 31-07] and `O=C(NCCO)c1cc2c(C3CCCNC3)cc(-c3c(O)cccc3OCC3CC3)nc2[nH]c1=O` (centres unmarked) [Example 31-20] cannot be ordered by IC50: < 500 nM for the first, < 500 nM for the second.

`O=C(c1cc2c(C3CCCNC3)cc(-c3c(O)cccc3OCC3CC3)nc2[nH]c1=O)N1CCNCC1` (centres unmarked) [Example 31-09] and `O=C(NC1CC1)c1cc2c(C3CCCNC3)cc(-c3c(O)cccc3OCC3CC3)nc2[nH]c1=O` (centres unmarked) [Example 31-21] cannot be ordered by IC50: < 500 nM for the first, < 500 nM for the second.

`CC(C)NC(=O)c1cc2c(C3CCCNC3)cc(-c3c(O)cccc3OCC3CC3)nc2[nH]c1=O` (centres unmarked) [Example 31-10] and `C[C@H](NC(=O)c1cc2c(C3CCCNC3)cc(-c3c(O)cccc3OCC3CC3)nc2[nH]c1=O)C(=O)O` (some centres unmarked) [Example 31-16] cannot be ordered by IC50: < 500 nM for the first, < 500 nM for the second.

`O=C(NC1Cc2ccccc2C1)c1cc2c(C3CCCNC3)cc(-c3c(O)cccc3OCC3CC3)nc2[nH]c1=O` (centres unmarked) [Example 31-12] and `O=C(NC1CCC1)c1cc2c(C3CCCNC3)cc(-c3c(O)cccc3OCC3CC3)nc2[nH]c1=O` (centres unmarked) [Example 31-22] cannot be ordered by IC50: < 500 nM for the first, < 500 nM for the second.

`O=C(NC(c1ccccc1)c1ccccc1)c1cc2c(C3CCCNC3)cc(-c3c(O)cccc3OCC3CC3)nc2[nH]c1=O` (centres unmarked) [Example 31-13] and `C[C@H](NC(=O)c1cc2c(C3CCCNC3)cc(-c3c(O)cccc3OCC3CC3)nc2[nH]c1=O)c1ccccc1` (some centres unmarked) [Example 31-14] cannot be ordered by IC50: < 500 nM for the first, < 500 nM for the second.

`C[C@@H](NC(=O)c1cc2c(C3CCCNC3)cc(-c3c(O)cccc3OCC3CC3)nc2[nH]c1=O)c1ccccc1` (some centres unmarked) [Example 31-15] and `O=C(NCCc1ccccc1)c1cc2c(C3CCCNC3)cc(-c3c(O)cccc3OCC3CC3)nc2[nH]c1=O` (centres unmarked) [Example 31-17] cannot be ordered by IC50: < 500 nM for the first, < 500 nM for the second.

`O=C(NC1CCCCC1)c1cc2c(C3CCCNC3)cc(-c3c(O)cccc3OCC3CC3)nc2[nH]c1=O` (centres unmarked) [Example 31-18] and `O=C(NC1CCCCCC1)c1cc2c(C3CCCNC3)cc(-c3c(O)cccc3OCC3CC3)nc2[nH]c1=O` (centres unmarked) [Example 31-24] cannot be ordered by IC50: < 500 nM for the first, < 500 nM for the second.

`O=C(NCC1CCCCC1)c1cc2c(C3CCCNC3)cc(-c3c(O)cccc3OCC3CC3)nc2[nH]c1=O` (centres unmarked) [Example 31-19] and `O=C(NC1CCCC1)c1cc2c(C3CCCNC3)cc(-c3c(O)cccc3OCC3CC3)nc2[nH]c1=O` (centres unmarked) [Example 31-23] cannot be ordered by IC50: < 500 nM for the first, < 500 nM for the second.

`CCC(CC)NC(=O)c1cc2c(C3CCCNC3)cc(-c3c(O)cccc3OCC3CC3)nc2[nH]c1=O` (centres unmarked) [Example 31-25] and `CCCC(CCC)NC(=O)c1cc2c(C3CCCNC3)cc(-c3c(O)cccc3OCC3CC3)nc2[nH]c1=O` (centres unmarked) [Example 31-26] cannot be ordered by IC50: < 500 nM for the first, < 500 nM for the second.

`O=C(NCC(F)(F)F)c1cc2c(C3CCCNC3)cc(-c3c(O)cccc3OCC3CC3)nc2[nH]c1=O` (centres unmarked) [Example 31-27] and `CC(=O)NCCNc1cc(-c2c(O)cccc2OCC2CC2)nc(N)c1C#N` [Example 34-19] cannot be ordered by IC50: < 500 nM for the first, < 500 nM for the second.

First: N#Cc1c(N2CCCC(C(N)=O)C2)cc(-c2ccccc2O)nc1N (centres unmarked) [Example 34-06]
Second: N#Cc1c(N2CCCNCC2)cc(-c2ccccc2O)nc1N [Example 34-08]
The IC50 of the first is higher: 2000 to 10000 nM for the first, 500 to 2000 nM for the second. The second is the more potent here.

`N#Cc1c(NC2CCNCC2)cc(-c2ccccc2O)nc1N` [Example 34-07] and `N#Cc1c(N2CCNCC2)cc(-c2ccccc2O)nc1N` [Example 34-09] cannot be ordered by IC50: < 500 nM for the first, < 500 nM for the second.

`N#Cc1c(NCCN)cc(-c2ccccc2O)nc1N` [Example 34-10] and `N#Cc1c(NCCCN)cc(-c2ccccc2O)nc1N` [Example 34-11] cannot be ordered by IC50: < 500 nM for the first, < 500 nM for the second.

`CNCCNc1cc(-c2ccccc2O)nc(N)c1C#N` [Example 34-12] and `N#Cc1c(NCCNCc2ccccc2)cc(-c2ccccc2O)nc1N` [Example 34-13] cannot be ordered by IC50: < 500 nM for the first, < 500 nM for the second.

`N#Cc1c(NCCNCc2ccccc2)cc(-c2c(O)cccc2OCC2CC2)nc1N` [Example 34-15] and `N#Cc1c(NCCNC(=O)c2ccccc2)cc(-c2c(O)cccc2OCC2CC2)nc1N` [Example 34-16] cannot be ordered by IC50: < 500 nM for the first, < 500 nM for the second.

`N#Cc1c(NCCNS(=O)(=O)c2ccccc2)cc(-c2c(O)cccc2OCC2CC2)nc1N` [Example 34-17] and `N#Cc1c(NCCNC(=O)Nc2ccccc2)cc(-c2c(O)cccc2OCC2CC2)nc1N` [Example 34-18] cannot be ordered by IC50: < 500 nM for the first, < 500 nM for the second.
